In patent US9573954B2, “Pyrazolopyrimidine compounds” (University Health Network, priority 2012, dated 2017) one finds IC50 and GI50 data, which are given here for eleven compounds.

SMILES strings stand for the structures. Read-outs that look alike come from different tables or passages of the source. A value given as a limit tells only on which side of the number the result lay.

For one assay, the target named is T1, human TTK (Homo sapiens, UniProt P33981).
T1 construct: Active TTK was purchased from Invitrogen as an amino terminal GST fusion of full length human TTK; purchased Invitrogen
T1 sequence (P33981 1-857): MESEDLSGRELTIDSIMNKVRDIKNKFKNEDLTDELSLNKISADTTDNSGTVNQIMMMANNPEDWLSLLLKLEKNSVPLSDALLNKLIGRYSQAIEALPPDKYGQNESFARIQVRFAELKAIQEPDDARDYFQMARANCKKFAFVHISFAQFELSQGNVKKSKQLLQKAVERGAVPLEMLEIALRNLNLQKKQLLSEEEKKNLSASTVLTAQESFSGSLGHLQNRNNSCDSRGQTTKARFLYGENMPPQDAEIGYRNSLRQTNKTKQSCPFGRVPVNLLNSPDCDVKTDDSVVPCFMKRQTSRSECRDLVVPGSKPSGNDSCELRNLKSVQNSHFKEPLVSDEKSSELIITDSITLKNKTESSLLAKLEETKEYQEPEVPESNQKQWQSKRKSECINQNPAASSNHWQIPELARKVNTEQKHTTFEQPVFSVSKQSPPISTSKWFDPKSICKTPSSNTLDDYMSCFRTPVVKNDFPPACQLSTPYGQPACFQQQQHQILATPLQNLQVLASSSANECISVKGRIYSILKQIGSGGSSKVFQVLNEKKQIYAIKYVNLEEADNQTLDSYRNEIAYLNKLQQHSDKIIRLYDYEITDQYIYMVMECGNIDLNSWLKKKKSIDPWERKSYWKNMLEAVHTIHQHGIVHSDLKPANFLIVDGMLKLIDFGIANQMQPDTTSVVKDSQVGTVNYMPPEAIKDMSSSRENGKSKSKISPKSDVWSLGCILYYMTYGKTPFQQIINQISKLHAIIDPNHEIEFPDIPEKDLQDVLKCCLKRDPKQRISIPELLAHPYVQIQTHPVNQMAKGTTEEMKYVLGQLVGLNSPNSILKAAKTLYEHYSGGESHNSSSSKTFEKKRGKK
Kind of assay: TTK inhibition assay (indirect ELISA). Type of assay: biochemical. Put shortly: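 Activity detected by indirect ELISA after compounds sat with full-length GST-TTK for 5 min prior to starting the reaction with ATP. IC50 came from a four-parameter logistic curve of % inhibition, calculated against background and uninhibited control wells.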
For orientation: In an ELISA, binding on a coated surface is turned into a signal by an enzyme label.

In assay [1] the test system is breast cancer cells (MDA-MB-468). Kind of assay: Cancer cell line growth inhibition, Sulforhodamine B assay, MDA-MB-468. Type of assay: cell-based. As to conditions: Homo sapiens, read-out: Cancer Cell Line GI50 Range MDA-MB-468. In outline: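 Sulforhodamine B staining (TCA-fixed, read at 570 nm) estimates cell mass after 5-day compound treatment of MDA-MB-468 cells, final concentrations 10 nM to 50 μM in 10% FBS DMEM. GI50 derived from growth inhibition versus DMSO controls.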
(In SRB staining, fixed cells bind dye roughly in proportion to their protein.)

In assay [2] the test system is ovarian cancer cells (PA-1). The experiment in a line: Cancer cell line growth inhibition, Sulforhodamine B assay, PA-1. It counts as cell-based. As to conditions: 120 h; Table 1; PA-1, 5 days, SRB; read-out: Cancer Cell Line GI50 Range PA-1. As to the method: Breast cancer cells (MDA-MB-231 and MDA-MB-468), colon cancer cells (HCT116) and ovarian cancer cells (PA-1 and OVCAR-3) were seeded (1000 to 4000 in 80 μl per well depending on the cell growth rate) into 96 well plates 24 hours before compound overlay. Compounds were prepared as 10 mM stock solutions in 100% DMSO which were diluted with DMEM (Dulbecco's Modified Eagle's Medium) cell growth Medium (Invitrogen, Burlington, ON, Canada) containing 10% FBS (Fetal Bovine Serum) to concentrations ranging from 50 nM to 250 μM. Aliquots (20 μl) from each concentration were overlaid to 80 μl of the pre-seeded cells in the 96 well plates to make final concentrations of 10 nM to 50 μM. The cells were cultured for 5 days before the Sulforhodamine B assay (SRB) was performed to determine the compound's cell growth inhibition activity.
Sulforhodamine B (purchased from Sigma, Oakville, ON, Canada) is a water-soluble dye that binds to the basic amino acids of the cellular proteins. Thus, colorimetric measurement of the bound dye provides an estimate of the total protein mass that is related to the cell number. the cells are fixed in situ by gently aspirating off the culture media and adding 50 μl ice cold 10% Trichloroacetic Acid (TCA) per well and incubate at 4° C. for 30-60 min, The plates are washed with H2O five times and allowed to air dry for 5 min. Addition of 50 μl 0.4% (w/v) SRB solution in 1% (v/v) acetic acid to each well and incubation for 30 min at RT completes the staining reaction. Following staining, plates are washed four times with 1% acetic acid to remove unbound dye and then allowed to air dry for 5 min. The stain is solubilized with 100 μl of 10 mM Tris pH 10.5 per well. Absorbance is read at 570 nm.
The percentage (%) of relative growth inhibition was calculated by comparing to DMSO treated only cells (100%). GI50's were determined for compounds with cytotoxic activity. The GI50 was calculated using GraphPad PRISM software (GraphPad Software, Inc., San Diego, Calif., USA).
In Table 1 below, GI50 value ranges for compound examples against breast cancer cell lines (MDA-MB-468), colon cancer cell lines (HCT116) and ovarian cancer cell lines (PA-1) are given.
In Table 2 below, GI50 value ranges for compound examples against breast cancer cell lines (MDA-MB-231), colon cancer cell lines (HCT116) and ovarian cancer cell lines (PA-1) are given.

Assay [3] has as its system colon cancer cells (HCT116). The experiment in a line: Cancer cell line growth inhibition, Sulforhodamine B assay, HCT116. It counts as cell-based. As to conditions: Homo sapiens, read-out: Cancer Cell Line GI50 Range HCT116. In outline:
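GI50 is calculated from growth inhibition relative to DMSO controls, using TCA-fixed, SRB-stained protein mass read at 570 nm. Compound, 10 nM–50 μM final in 10% FBS DMEM, was applied for 5 days to HCT116 cells that had been plated 24 h before at 1000–4000/well.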

Assay [4] deals with Colon 12 tumor initiating cells. The experiment in a line: Tumor-initiating cell growth inhibition, Alamar Blue assay, colon TICs. Type of assay: cell-based. Conditions: 216 h, 9 days, read-out: Tumor Initiating Cell GI50 Range Colon 12. In outline:
(§1)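 Colon TICs (4,000/well, non-TC plates) and ovarian TICs (1,000/well, TC plates) kept in serum-free DMEM:F12 with B-27, heparin, bFGF and EGF. Compound added after 24 h at 0.1% DMSO, then 9 days (colon) or 6 days (ovarian) at 37° C. GI50 from Alamar Blue fluorescence (ex 544/em 590) after 4 h.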
For orientation: Alamar Blue is a resazurin reagent that responds to reducing activity.

The subject of assay [5] is Ovarian 2393A tumor initiating cells. The experiment in a line: Tumor-initiating cell growth inhibition, Alamar Blue assay, ovarian TICs. It counts as cell-based. Conditions: 144 h, 6 days, read-out: Tumor Initiating Cell GI50 Range Ovarian 2393A. Put shortly:
as §1

Assay [6] relates to ovarian cancer cells (OVCAR-3). Kind of assay: Cancer cell line growth inhibition, Sulforhodamine B assay, OVCAR-3. Type of assay: cell-based. Conditions: Homo sapiens, OVCAR-3, OVCAR-3 ovarian cancer cell line; read-out: Cancer Cell Line GI50 Range OVCAR-3. Put shortly:
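OVCAR-3 cells were seeded 24 h before compound addition, then exposed for 5 days to final concentrations of 10 nM to 50 μM in DMEM with 10% FBS. Growth was measured by TCA fixation and sulforhodamine B staining with absorbance at 570 nm. Inhibition was relative to DMSO-only cells, and GI50 came from curve fitting.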

[7] abbreviates: Table 1, 16 μM ATP (asterisk), read-out: TTK IC50 Range.
Where [8] appears, read: MDA-MB-468, 120 h, Table 1, MDA-MB-468, 5 days, SRB.
[9] abbreviates: HCT-116, 120 h, Table 1, HCT116, 5 days, SRB.
Setting [10] is: 100 μM ATP, read-out: TTK IC50 Range.
Setting [11] is: MDA-MB-468, MDA-MB-468 breast cancer cell line.
The mark [12] stands for this setting: HCT-116, HCT116 colon cancer cell line.

Take `O=C(NC1CC1)c1ccc(-c2cnn3c(NCC4CCOCC4)nc(Oc4cccnc4)nc23)cc1` [Example A13, N-cyclopropyl-4-(2-(pyridin-3-yloxy)-4-(((tetrahydro-2H-pyran-4-yl)methyl)amino)-pyrazolo[1,5-a][1,3,5]triazin-8-yl)benzamide]: on human TTK (setting [7]), the IC50 – broadly, the midpoint of a concentration-inhibition curve – was below 100 nM. In addition, the GI50 (as a rule, the concentration giving 50% growth inhibition) in assay [1] (setting [8]) was above 500 nM; in assay [2], 100 to 500 nM; in assay [3] (setting [9]), above 500 nM.
For the compound `O=C(NC1CC1)c1ccc(-c2cnn3c(NCC4CCOCC4)nc(N4CCOCC4)nc23)cc1Cl` [Example A6, 2-chloro-N-cyclopropyl-4-(2-morpholino-4-(((tetrahydro-2H-pyran-4-yl)methyl)amino)pyrazolo[1,5-a][1,3,5]triazin-8-yl)benzamide], the IC50 at human TTK (setting [7]) is below 100 nM. Further, the concentration for 50% growth inhibition (GI50) in assay [1] (setting [8]) is above 500 nM; in assay [2] it was at most 100 nM; in assay [4] (Table 1, colon TICs, Alamar Blue), 100 to 500 nM; in assay [5] (Table 1, ovarian TICs, Alamar Blue), 100 to 500 nM; in assay [3] (setting [9]), 100 to 500 nM.
Consider `O=C(NC1CC1)c1ccc(-c2cnn3c(NCCN4CCOCC4)nc(Oc4cccnc4)nc23)cc1` [Example A8, N-cyclopropyl-4-(4-((2-morpholinoethyl)amino)-2-(pyridin-3-yloxy)pyrazolo[1,5-a][1,3,5]triazin-8-yl)benzamide], for which, on human TTK (setting [7]), the IC50 is above 500 nM. The GI50 in assay [1] (setting [8]), in assay [2] and in assay [3] (setting [9]) was above 500 nM throughout.
Turning to `O=C(NC1CC1)c1ccc(-c2cnn3c(NCC4CCOCC4)nc(OC4CCCC4)nc23)cc1` [Example A11, 4-(2-(cyclopentyloxy)-4-(((tetrahydro-2H-pyran-4-yl)methyl)amino)pyrazolo[1,5-a][1,3,5]triazin-8-yl)-N-cyclopropylbenzamide], the half-maximal inhibitory concentration (IC50) on human TTK (setting [7]) was below 100 nM. The GI50 in assay [1] (setting [8]) is above 500 nM; in assay [2] it was 100 to 500 nM; in assay [3] (setting [9]) it was 100 to 500 nM.
Regarding `O=C(NC1CC1)c1ccc(-c2cnn3c(NCC4CCOCC4)nc(Oc4ccccc4)nc23)cc1` [Example A10, N-cyclopropyl-4-(2-phenoxy-4-(((tetrahydro-2H-pyran-4-yl)methyl)amino)pyrazolo[1,5-a][1,3,5]triazin-8-yl)benzamide], the IC50 on human TTK (setting [7]) is below 100 nM. Also, the results for the GI50 in assay [1] (setting [8]), in assay [2] and in assay [3] (setting [9]) were above 500 nM, 100 to 500 nM and 100 to 500 nM, respectively.
As for `Cc1cc(-c2cnn3c(NCC4CCOCC4)cc(N[C@@H](C4CC4)C(C)(C)O)nc23)ccc1C(=O)NC1CC1` [Example C41, (S)-N-cyclopropyl-4-(5-((1-cyclopropyl-2-hydroxy-2-methylpropyl)amino)-7-(((tetrahydro-2H-pyran-4-yl)methyl)amino)pyrazolo[1,5-a]pyrimidin-3-yl)-2-methylbenzamide], on human TTK (setting [10]), the IC50 was below 100 nM. For the same compound, the GI50 is at most 100 nM in assay [1] (setting [11]); at most 100 nM in assay [4] (Colon 12 TICs); 100 to 500 nM in assay [5] (Ovarian 2393A TICs); at most 100 nM in assay [3] (setting [12]); at most 100 nM in assay [6].
As to `Cc1cc(-c2cnn3c(NCCN4CCC(O)CC4)cc(Oc4cccc(F)c4)nc23)ccc1C(=O)NC1CC1` [Example C182], the IC50 on human TTK (setting [10]) was below 100 nM. The GI50 in assay [1] (setting [11]), in assay [4] (Colon 12 TICs), in assay [5] (Ovarian 2393A TICs), in assay [3] (setting [12]) and in assay [6] was at most 100 nM each time.
With `Cc1cc(-c2cnn3c(NCCN4CCOCC4)nc(Oc4cccc(F)c4F)nc23)ccc1C(=O)NC1CC1` [Example C26], at human TTK (16 μM ATP (Sigma cat# A7699), read-out: TTK IC50 Range (denoted with an asterisk)), the IC50 was below 100 nM. The 50% growth inhibitory concentration (GI50) in assay [1] (setting [11]) was 100 to 500 nM; in assay [4] (Colon 12 TICs), at most 100 nM; in assay [5] (Ovarian 2393A TICs), at most 100 nM; in assay [3] (setting [12]), at most 100 nM; in assay [6] it was 100 to 500 nM.
In the case of `Cc1cc(-c2cnn3c(NC[C@H]4CC[C@H](O)CC4)cc(Oc4cccnc4)nc23)ccc1C(=O)NC1CC1` [Example C177], at human TTK (setting [10]), the IC50 was below 100 nM. Besides, the concentration for 50% growth inhibition (GI50) in assay [1] (setting [11]) was 100 to 500 nM; in assay [4] (Colon 12 TICs), at most 100 nM; in assay [5] (Ovarian 2393A TICs), at most 100 nM; in assay [3] (setting [12]) it was 100 to 500 nM; in assay [6], 100 to 500 nM.
In the case of `Cc1cc(-c2cnn3c(NCC4CCOCC4)cc(N[C@@H]4CCCC[C@@H]4O)nc23)ccc1C(=O)NC1CC1` [Example C118], the 50% inhibitory concentration (IC50) at human TTK (setting [10]) is below 100 nM. The GI50 is 100 to 500 nM in assay [1] (setting [11]); 100 to 500 nM in assay [4] (Colon 12 TICs); 100 to 500 nM in assay [5] (Ovarian 2393A TICs); at most 100 nM in assay [3] (setting [12]); 100 to 500 nM in assay [6].
Regarding `Cc1cc(-c2cnn3c(NCC4CCOCC4)cc(-c4ccncc4)nc23)ccc1C(=O)NC1CC1` [Example C150], the IC50 at human TTK (setting [10]) is below 100 nM. Also, the GI50 in assay [1] (setting [11]), in assay [4] (Colon 12 TICs), in assay [5] (Ovarian 2393A TICs), in assay [3] (setting [12]) and in assay [6] was 100 to 500 nM throughout.
